# Experimental data as given in ChEMBL document CHEMBL4382231, “Chemical preparation, biological evaluation and 3D-QSAR of ethoxysulfuron derivatives as novel antifungal agents targeting acetohydroxyacid synthase” (Eur J Med Chem, 2019).
# The source made the active and inactive calls. The calls are words filed in the database; no cut-off is given here.
# Experiments:
# [1] = tested on: Candida parapsilosis; test: Antifungal activity against Candida parapsilosis ATCC 22019 cultured in YNB media after 48 hrs by broth microdilution method; format: functional
# [2] = tested on: Candida albicans; test: Antifungal activity against fluconazole-resistant Candida albicans isolate 17 cultured in YNB media after 72 hrs by broth microdilution method; format: functional
# [3] = tested on: Candida albicans; test: Antifungal activity against Candida albicans SC5314 cultured in RPMI 1640 media after 24 hrs by broth microdilution method; format: functional; details: SC5314, 24 h
# [4] = tested on: Candida albicans; test: Antifungal activity against Candida albicans SC5314 cultured in YNB media after 72 hrs by broth microdilution method; format: functional
# [5] = tested on: Candida albicans; test: Antifungal activity against fluconazole-resistant Candida albicans isolate 17 cultured in YNB media after 24 hrs by broth microdilution method; format: functional
# [6] = tested on: Candida albicans; test: Antifungal activity against Candida albicans SC5314 cultured in YNB media after 24 hrs by broth microdilution method; format: functional; details: SC5314, 24 h
# [7] = tested on: Candida parapsilosis; test: Antifungal activity against Candida parapsilosis ATCC 22019 cultured in YNB media after 24 hrs by broth microdilution method; format: functional; details: Lodderomyces parapsilosis, ATCC 22019, 24 h
# [8] = tested on: Candida albicans; test: Antifungal activity against Candida albicans SC5314 infected in Caenorhabditis elegans assessed as mortality at 20 nM after 24 hrs by propidium iodide staining based fluorescence microscopic analysis (reference value: 17%); format: functional
# [9] = tested on: Saccharomyces cerevisiae; test: Antifungal activity against Saccharomyces cerevisiae SC XH1549 cultured in YNB media after 48 hrs by broth microdilution method; format: functional
# [10] = tested on: Saccharomyces cerevisiae; test: Antifungal activity against Saccharomyces cerevisiae SC XH1549 cultured in YNB media after 24 hrs by broth microdilution method; format: functional; details: SC XH1549, 24 h
# [11] = tested on: Candida albicans; test: Antifungal activity against fluconazole-resistant Candida albicans isolate g5 cultured in YNB media after 24 hrs by broth microdilution method; format: functional
# [12] = tested on: Saccharomyces cerevisiae; test: Antifungal activity against Saccharomyces cerevisiae SC XH1549 cultured in YNB media after 72 hrs by broth microdilution method; format: functional
# [13] = tested on: Candida albicans; test: Antifungal activity against fluconazole-resistant Candida albicans isolate 17 cultured in YNB media after 48 hrs by broth microdilution method; format: functional
# [14] = tested on: Candida albicans; test: Antifungal activity against fluconazole-resistant Candida albicans isolate g5 cultured in YNB media after 72 hrs by broth microdilution method; format: functional
# [15] = tested on: Candida albicans; test: Antifungal activity against fluconazole-resistant Candida albicans isolate g5 cultured in YNB media after 48 hrs by broth microdilution method; format: functional
# [16] = tested on: Candida albicans; test: Antifungal activity against Candida albicans SC5314 cultured in YNB media after 48 hrs by broth microdilution method; format: functional
# [17] = tested on: Candida parapsilosis; test: Antifungal activity against Candida parapsilosis ATCC 22019 cultured in YNB media after 72 hrs by broth microdilution method; format: functional
# [18] = tested on: Candida albicans; test: Ratio of MIC for Candida albicans SC5314 cultured in RPMI 1640 media to MIC for Candida albicans SC5314 cultured in YNB media; format: functional
# [19] = Inhibition of Candida albicans AHAS catalytic subunit using pyruvate as substrate measured after 30 mins by colorimetric method
# [20] = Toxicity in topically applied rabbit; set-up: species or system Oryctolagus cuniculus; details: in vivo, topical or ocular
# [21] = Toxicity in po dosed rat; format: organism-based; details: in vivo
# [22] = Lodderomyces parapsilosis, ATCC 22019, 48 h
# [23] = Lodderomyces parapsilosis, ATCC 22019, 72 h
Structure (SMILES),MIC [3],MIC [6],MIC [7],Activity [8],MIC [10],"MIC [1, 22]","MIC ([2]; isolate 17, 72 h)","MIC ([4]; SC5314, 72 h)",Ratio IC50 [18],"MIC ([5]; isolate 17, 24 h)","MIC ([9]; SC XH1549, 48 h)","MIC ([11]; isolate g5, 24 h)","MIC ([12]; SC XH1549, 72 h)","MIC ([13]; isolate 17, 48 h)","MIC ([14]; isolate g5, 72 h)","MIC ([15]; isolate g5, 48 h)","MIC ([16]; SC5314, 48 h)","MIC [17, 23]",Ki [19],pKi [19],further results
OC(Cn1cncn1)(Cn1cncn1)c1ccc(F)cc1F [FLUCONAZOLE],0.25 mg/L,0.25 mg/L,0.25 mg/L,5%,0.25 mg/L,–,–,–,–,–,–,–,–,–,–,–,–,–,–,–,MIC [1]: inactive; MIC [2]: inactive; MIC [4]: inactive; MIC [5]: inactive; MIC [9]: inactive; MIC [11]: inactive; MIC [12]: inactive; MIC [13]: inactive; MIC [14]: inactive; MIC [15]: inactive; MIC [16]: inactive; MIC [17]: inactive
COc1cc(OC)nc(NC(=O)[N-]S(=O)(=O)Oc2ccccc2OCCI)n1.[Na+],50 mg/L,2.5 mg/L,5 mg/L,–,80 mg/L,20 mg/L,20 mg/L,10 mg/L,20,5 mg/L,> 80 mg/L,5 mg/L,> 80 mg/L,10 mg/L,20 mg/L,10 mg/L,5 mg/L,20 mg/L,0.125 µM,6.9,–
CCOC(=O)c1ccccc1S(=O)(=O)NC(=O)Nc1nc(Cl)cc(OC)n1 [CHLORIMURON ETHYL],–,–,–,8%,–,–,–,–,–,–,–,–,–,–,–,–,–,–,–,–,LD50 [20]: > 2000 mg/kg; LD50 [21]: > 4000 mg/kg
CCOC(=O)c1ccccc1OS(=O)(=O)[N-]C(=O)Nc1nc(OC)cc(OC)n1.[Na+],25 mg/L,1.25 mg/L,1.25 mg/L,7%,2.5 mg/L,2.5 mg/L,5 mg/L,2.5 mg/L,20,2.5 mg/L,5 mg/L,2.5 mg/L,5 mg/L,5 mg/L,2.5 mg/L,2.5 mg/L,2.5 mg/L,2.5 mg/L,0.0067 µM,8.17,–
CCOc1ccccc1OS(=O)(=O)NC(=O)Nc1nc(OC)cc(OC)n1 [ETHOXYSULFURON],12.5 mg/L,0.625 mg/L,1.25 mg/L,3%,5 mg/L,2.5 mg/L,2.5 mg/L,1.25 mg/L,–,1.25 mg/L,5 mg/L,1.25 mg/L,5 mg/L,2.5 mg/L,2.5 mg/L,1.25 mg/L,1.25 mg/L,2.5 mg/L,0.0216 µM,7.66,–
